Our source for the EC50 values is patent US20190031599A1, “INDANE DERIVATIVES AS MGLUR7 MODULATORS” (Takeda Pharmaceutical Company Limited, priority 2016, published 2019).

Structures can show the parent of a compound that is named as a salt.

T1 sequence (Q14831 35-915): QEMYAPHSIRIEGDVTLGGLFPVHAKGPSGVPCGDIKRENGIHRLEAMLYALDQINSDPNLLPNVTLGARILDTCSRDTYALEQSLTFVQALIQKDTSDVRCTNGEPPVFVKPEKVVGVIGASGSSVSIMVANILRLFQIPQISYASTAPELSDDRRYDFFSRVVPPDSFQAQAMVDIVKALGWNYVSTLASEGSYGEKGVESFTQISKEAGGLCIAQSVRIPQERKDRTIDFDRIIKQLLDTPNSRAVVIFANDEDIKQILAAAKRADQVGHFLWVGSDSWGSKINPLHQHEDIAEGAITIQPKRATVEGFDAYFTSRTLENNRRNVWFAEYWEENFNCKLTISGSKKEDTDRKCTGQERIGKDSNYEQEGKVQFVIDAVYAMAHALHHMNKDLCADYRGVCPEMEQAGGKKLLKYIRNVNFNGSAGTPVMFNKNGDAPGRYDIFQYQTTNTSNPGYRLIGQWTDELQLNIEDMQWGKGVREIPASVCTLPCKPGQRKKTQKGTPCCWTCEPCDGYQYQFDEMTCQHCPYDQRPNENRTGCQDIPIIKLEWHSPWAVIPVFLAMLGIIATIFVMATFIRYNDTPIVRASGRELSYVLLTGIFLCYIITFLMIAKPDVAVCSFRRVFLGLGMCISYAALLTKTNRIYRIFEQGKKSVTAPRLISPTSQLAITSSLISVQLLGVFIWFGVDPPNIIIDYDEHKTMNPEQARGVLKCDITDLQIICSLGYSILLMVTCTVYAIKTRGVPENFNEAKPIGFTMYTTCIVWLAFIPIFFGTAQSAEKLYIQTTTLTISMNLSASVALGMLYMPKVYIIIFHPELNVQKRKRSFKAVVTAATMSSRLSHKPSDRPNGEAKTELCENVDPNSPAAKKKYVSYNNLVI

This test concerns the target T1, human mGluR7 (Homo sapiens, UniProt Q14831).
T1 construct: expressed in transfected cells
Nature of the test: mGluR7 assay: CRE-directed luciferase reporter gene assay, reduction of forskolin stimulated cAMP production. The class given is cell-based. As to conditions: stable CHO cell line expressing the CRE-luc reporter and human mGluR7 genes; decrease of forskolin stimulated luminescence; 10-point concentration-response, duplicate wells. The gist of the method:
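Stable CHO cell line co-expressing human mGluR7 and a CRE-luciferase reporter; compounds preincubated 15 min at 37 °C, then forskolin added and incubated 5 h at 37 °C. 10-point half-log concentration-response in duplicate, normalised to forskolin-alone (max) and forskolin plus tool mGluR7 agonist (min) controls.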
By EC50 is commonly meant the concentration giving half of the maximal effect. Read a high EC50 as a need for much substance. Turning to `CN[C@@H]1c2ccccc2C[C@H]1NC(=O)[C@@H](C)c1ccc(F)cc1` [Example 95, (2S)-2-(4-fluorophenyl)-N-[(1R,2R)-1-(methylamino)-2,3-dihydro-1H-inden-2-yl]propanamide], the 50% effective concentration (EC50) was determined as 9 nM.
As for `CC(C)(C)OC(=O)N[C@H]1c2ccccc2C[C@@H]1NC(=O)C(c1ccc(F)cc1F)N1CC(F)C1` (mixture of isomers) [Example 93, tert-butyl N-[(1S,2S)-2-[2-(2,4-difluorophenyl)-2-(3-fluoroazetidin-1-yl)acetamido]-2,3-dihydro-1H-inden-1-yl]carbamate], the figure is 23 nM.
As for `COC1c2ccccc2CC1NC(=O)[C@H](NC(=O)C1CC1)c1ccc(F)cc1` (single isomer, unassigned) [Example 144], the figure is 191 nM; as for `CC(=O)N[C@H]1c2ccccc2C[C@@H]1NC(=O)[C@@H](C)c1ccc(F)cc1F` [Example 80, (2S)-2-(2,4-difluorophenyl)-N-[(1S,2S)-1-acetamido-2,3-dihydro-1H-inden-2-yl]propanamide], 814 nM; as for `C[C@H](C(=O)N[C@@H]1Cc2ccccc2[C@H]1NC(=O)OC(C)(C)C)c1ccccc1` [Example 18, tert-butyl N-[(1R,2R)-2-[(2S)-2-phenylpropanamido]-2,3-dihydro-1H-inden-1-yl]carbamate], 150 nM.
In the case of `CC(C(=O)N[C@H]1Cc2ccccc2[C@@H]1N)c1ccc(Cl)cc1` (single isomer, unassigned) [Example 70], a half-maximal response (EC50) required 956 nM.
As for `CCOC1c2ccccc2CC1NC(=O)[C@@H](C)c1ccc(F)cc1F` (mixture of isomers) [Example 28, (2S)-2-(2,4-difluorophenyl)-N-((trans)-1-ethoxy-2,3-dihydro-1H-inden-2-yl)propanamide], the figure is 28 nM.
`CC[C@H](C(=O)NC1Cc2ccccc2C1OC)c1ccc(F)cc1` (single isomer, unassigned) [Example 46] yielded an EC50 of 11 nM.
Regarding `C[C@H](C(=O)N[C@H]1Cc2ccccc2[C@@H]1N)c1ccc(F)cc1` [Example 24, (2S)—N-[(1S,2S)-1-amino-2,3-dihydro-1H-inden-2-yl]-2-(4-fluorophenyl)propanamide], the EC50 was found to be 66 nM.
As to `COC1c2ccccc2CC1NC(=O)C(c1ccc(F)cc1F)N1CC(F)C1` (single isomer, unassigned) [Example 136, 2-(2,4-difluorophenyl)-2-(3-fluoroazetidin-1-yl)-N-(trans)-(1-methoxy-2,3-dihydro-1H-inden-2-yl)acetamide], a half-maximal effect (EC50) was put at 1980 nM.
As for `COC1c2ccccc2CC1NC(=O)[C@@H](NCC1CC1)c1ccc(F)cc1` (single isomer, unassigned) [Example 55], the figure is 1 nM.
In turn, `CN[C@H]1c2ccccc2C[C@@H]1NC(=O)[C@@H](C)c1ccc(F)cc1` [Example 64, (2S)-2-(4-fluorophenyl)-N-[(1S,2S)-1-(methylamino)-2,3-dihydro-1H-inden-2-yl]propanamide] gave an EC50 of 45 nM.
Turning to `N[C@H]1c2ccccc2C[C@@H]1NC(=O)C1(c2ccccc2)CNC(=O)C1` (stereo partly drawn) [Example 122, N-[(1S,2S)-1-amino-2,3-dihydro-1H-inden-2-yl]-5-oxo-3-phenylpyrrolidine-3-carboxamide], the EC50 is 485 nM.
As for `COC1c2ccccc2CC1NC(=O)C(c1ccc(F)cc1)N1CC(F)C1` (single isomer, unassigned) [Example 141, 2-(4-fluorophenyl)-2-(3-fluoroazetidin-1-yl)-N-(trans)-(1-methoxy-2,3-dihydro-1H-inden-2-yl)acetamide], the figure is 39 nM; as for `COC1c2ccccc2CC1NC(=O)[C@@H](NS(C)(=O)=O)c1ccc(F)cc1` (stereo in doubt) [Example 72, (2S)-2-(4-fluorophenyl)-2-methanesulphonamido-N-(trans)-(1-methoxy-2,3-dihydro-1H-inden-2-yl)acetamide], 11 nM; as for `C[C@H](C(=O)N[C@H]1Cc2ccccc2[C@@H]1Nc1ncccn1)c1ccc(F)cc1F` [Example 133, (2S)-2-(2,4-difluorophenyl)-N-[(1S,2S)-1-[(pyrimidin-2-yl)amino]-2,3-dihydro-1H-inden-2-yl]propanamide], 178 nM.
In the case of `C[C@H](C(=O)NC1Cc2ccccc2C1O)c1ccccc1` (single isomer, unassigned) [Example 6], the midpoint of the response, the EC50, lay at 1560 nM.
In the case of `CO[C@H](C(=O)N[C@H]1Cc2ccccc2[C@@H]1N)c1ccccc1` [Example 19, (2S)—N-[(1S,2S)-1-amino-2,3-dihydro-1H-inden-2-yl]-2-methoxy-2-phenylacetamide hydrochloride] it was 973 nM; in that of `N[C@H]1c2ccccc2C[C@@H]1NC(=O)C(c1ccc(F)cc1)N1CC(F)C1` (single isomer, unassigned) [Example 118], 2870 nM; in that of `C[C@H](C(=O)NC1Cc2ccccc2C1O)c1ccccc1` (single isomer, unassigned) [Example 4], 121 nM.
In turn, `COC1CN(C(C(=O)N[C@H]2Cc3ccccc3[C@@H]2NC(=O)OC(C)(C)C)c2ccc(F)cc2F)C1` (stereo partly drawn) [Example 104, tert-butyl N-[(1S,2S)-2-[2-(2,4-difluorophenyl)-2-(3-methoxyazetidin-1-yl)acetamido]-2,3-dihydro-1H-inden-1-yl]carbamate] registered an EC50 of 12 nM.
In turn, `CN[C@@H]1c2ccccc2C[C@@H]1NC(=O)[C@@H](C)c1ccc(F)cc1` [Example 160, (2S)-2-(4-fluorophenyl)-N-[(1R,2S)-1-(methylamino)-2,3-dihydro-1H-inden-2-yl]propanamide] returned a concentration giving a half-maximal response (EC50) of 5940 nM.
In turn, `CCOC1c2ccccc2CC1NC(=O)[C@@H](C)c1ccc(F)cc1` (stereo in doubt) [Example 31, (2S)—N-((trans)-1-ethoxy-2,3-dihydro-1H-inden-2-yl)-2-(4-fluorophenyl)propanamide] returned an EC50 of 19 nM.
Take `COC1c2ccccc2CC1NC(=O)C(c1ccc(F)cc1F)N1CC(F)C1` (single isomer, unassigned) [Example 137, 2-(2,4-difluorophenyl)-2-(3-fluoroazetidin-1-yl)-N-(trans)-(1-methoxy-2,3-dihydro-1H-inden-2-yl)acetamide]: the response was half-maximal at 741 nM (EC50).
In the case of `COC1c2ccccc2CC1NC(=O)[C@@H](C)c1ccc(F)cc1` (single isomer, unassigned) [Example 37] it was 38 nM; in that of `CC(C)(C)OC(=O)N[C@H]1c2ccccc2C[C@@H]1NC(=O)C(c1ccc(F)cc1F)n1ccccc1=O` (single isomer, unassigned) [Example 49], 133 nM; in that of `C[C@H](C(=O)NC1Cc2ccccc2C1O)c1ccccc1` (single isomer, unassigned) [Example 5], 654 nM.
Consider `CCOC1c2ccccc2CC1NC(=O)[C@@H](C)c1ccc(F)cc1` (single isomer, unassigned) [Example 33], for which the midpoint of the response, the EC50, lay at 39 nM.
`COC1c2ccccc2CC1NC(=O)[C@@H](NCC1CC1)c1ccc(F)cc1` (single isomer, unassigned) [Example 56] returned an EC50 of 1 nM.
Take `CC(C)C(C(=O)N[C@H]1Cc2ccccc2[C@@H]1N)c1ccc(Cl)cc1` (stereo partly drawn) [Example 20, N-[(1S,2S)-1-amino-2,3-dihydro-1H-inden-2-yl]-2-(4-chlorophenyl)-3-methylbutanamide hydrochloride]: a half-maximal effect (EC50) was put at 104 nM.
In the case of `COC1c2ccccc2CC1NC(=O)C(c1ccc(F)cc1)n1ncccc1=O` (single isomer, unassigned) [Example 129, 2-(4-fluorophenyl)-N-(trans)-(1-methoxy-2,3-dihydro-1H-inden-2-yl)-2-(6-oxo-1,6-dihydropyridazin-1-yl)acetamide] it was 3900 nM.
Turning to `N[C@H]1c2ccccc2C[C@@H]1NC(=O)C1(c2ccccc2)CCNC1` (stereo partly drawn) [Example 120, N-[(1S,2S)-1-amino-2,3-dihydro-1H-inden-2-yl]-3-phenylpyrrolidine-3-carboxamide], it took 3320 nM to reach a half-maximal effect (EC50).
`CCN[C@H]1c2ccccc2C[C@@H]1NC(=O)[C@@H](C)c1ccc(F)cc1` [Example 134, (2S)—N-[(1S,2S)-1-(ethylamino)-2,3-dihydro-1H-inden-2-yl]-2-(4-fluorophenyl)propanamide] had an EC50 of 86 nM.
In turn, `CC[C@H](C(=O)N[C@H]1Cc2ccccc2[C@@H]1N)c1ccc(F)cc1` [Example 52, (2S)—N-[(1S,2S)-1-amino-2,3-dihydro-1H-inden-2-yl]-2-(4-fluorophenyl)butanamide] returned an EC50 of 53 nM.
`C[C@H](C(=O)N[C@H]1Cc2ccccc2[C@@H]1NC(=O)OC(C)(C)C)c1ccc(F)cc1F` [Example 23, tert-butyl N-[(1S,2S)-2-[(2S)-2-(2,4-difluorophenyl)propanamido]-2,3-dihydro-1H-inden-1-yl]carbamate] yielded an EC50 of 18 nM.
In the case of `COc1cc(F)ccc1C(C)C(=O)N[C@H]1Cc2ccccc2[C@@H]1NC(=O)OC(C)(C)C` (stereo partly drawn) [Example 152, tert-butyl N-[(1S,2S)-2-[2-(4-fluoro-2-methoxyphenyl)propanamido]-2,3-dihydro-1H-inden-1-yl]carbamate] it was 183 nM.
In the case of `COC1c2ccccc2CC1NC(=O)[C@@H](NC(=O)C1CC1)c1ccc(F)cc1` (single isomer, unassigned) [Example 101] it was 6 nM; in that of `CC(C)(C)OC(=O)N[C@H]1c2ccccc2C[C@@H]1NC(=O)C(c1ccc(F)cc1F)n1ccccc1=O` (single isomer, unassigned) [Example 48], 336 nM; in that of `COc1ccc(C(C)C(=O)N[C@H]2Cc3ccccc3[C@@H]2N)cc1` (stereo partly drawn) [Example 57, N-[(1S,2S)-1-amino-2,3-dihydro-1H-inden-2-yl]-2-(4-methoxyphenyl)propanamide hydrochloride], 2210 nM.
The molecule `COC1c2ccccc2CC1NC(=O)[C@@H](NC(=O)C1CC1)c1ccc(F)cc1` (stereo in doubt) [Example 66, (2S)-2-(cyclopropylformamido)-2-(4-fluorophenyl)-N-(trans)-(1-methoxy-2,3-dihydro-1H-inden-2-yl)acetamide] showed an EC50 of 4 nM.
